Some test systems named below: HCT-116 colon; NCI-H226 lung; M14 melanoma; K-562 leukemia; COLO 205 colon; NCI-H460 lung; SW-620 colon; OVCAR-3 ovarian; HCT-15 colon.
What all share (test): inhibition of tumour cell growth, NCI panel, 48 h

Where “and” joins values, the source holds several entries; their conditions need not be identical. Equal entries are not always repeated.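 Cultured in 96-well plates, cells were exposed to test compound for 48 hours across five concentrations. GI50: concentration for 50% inhibition of growth. TGI: concentration producing complete growth inhibition.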

Regarding `CC(=O)N(C)OC(=O)CC(=O)c1ccccc1`, the TGI with HCT-116 colon, with NCI-H226 lung, in the test on M14 melanoma, in the test on K-562 leukemia, in the test with COLO 205 colon and with NCI-H460 lung was over 100 µM in each case. Besides, the TGI in the test with SW-620 colon and in the test with OVCAR-3 ovarian was over 100 µM in each case.

As to `O=C1NC(=O)C(C(=O)C(=O)Nc2ccc(Br)cc2)C(=O)N1`, the TGI in the test on HCT-116 colon, in the test on NCI-H226 lung, in the test with M14 melanoma, in the test on K-562 leukemia, in the test with COLO 205 colon and in the test with SW-620 colon was over 100 µM throughout. Besides, the TGI with OVCAR-3 ovarian and in the test on HCT-15 colon was over 100 µM throughout.

Regarding `CNc1ccccc1C(=O)N/N=C/C=C/c1ccccc1`, the GI50 is 0.499 µM in the test on HCT-116 colon; 10 µM with NCI-H226 lung; 0.6 µM in the test on M14 melanoma; 0.44 µM in the test on K-562 leukemia; 0.671 µM with COLO 205 colon; 0.503 µM with NCI-H460 lung. Besides, the GI50 was 0.454 µM in the test with SW-620 colon, 0.563 µM with OVCAR-3 ovarian and 0.457 µM with HCT-15 colon. Besides, the TGI with HCT-116 colon is over 100 µM; with NCI-H226 lung it was over 100 µM; in the test with M14 melanoma, 24.8 µM; in the test with K-562 leukemia, over 100 µM; in the test on COLO 205 colon it was 10.3 µM; with NCI-H460 lung it was over 41.9 µM. Also, the TGI in the test with SW-620 colon is over 100 µM; with OVCAR-3 ovarian, over 100 µM; with HCT-15 colon it was over 74.1 µM.

As for `CC1=CC=NN2C(=O)[C@H](C)C2C1` (some centres not stated), the TGI with HCT-116 colon, with NCI-H226 lung, in the test on M14 melanoma, with K-562 leukemia, with COLO 205 colon and in the test on NCI-H460 lung was over 100 µM in each case. Further, the TGI in the test on SW-620 colon, in the test on OVCAR-3 ovarian and with HCT-15 colon was over 100 µM throughout.

Take `Cn1ncc(=S)[nH]c1=S`: the TGI in the test with HCT-116 colon, in the test with NCI-H226 lung, with M14 melanoma, in the test on K-562 leukemia, in the test on COLO 205 colon and in the test with NCI-H460 lung was over 100 µM throughout. The TGI with SW-620 colon, with OVCAR-3 ovarian and in the test with HCT-15 colon was over 100 µM throughout.

In the case of `CC(Cn1c2c3ccccc3ccc2c2oc(=O)c3ccccc3c21)N(C)C` (configuration not stated), the TGI in the test with HCT-116 colon, in the test on M14 melanoma, in the test on K-562 leukemia, in the test with COLO 205 colon, in the test on NCI-H460 lung and in the test on SW-620 colon was over 100 µM in each case. The TGI in the test with OVCAR-3 ovarian and with HCT-15 colon was over 100 µM each time.

`COC(=O)c1c[nH]cc1CCc1c[nH]cc1C(=O)OC`: the TGI in the test with HCT-116 colon, in the test with NCI-H226 lung, in the test with K-562 leukemia, with COLO 205 colon, with NCI-H460 lung and in the test with SW-620 colon was over 100 µM in each case. Moreover, the TGI in the test with OVCAR-3 ovarian and in the test with HCT-15 colon was over 100 µM in each case.

As for `O=C(Cc1nc2ccccc2s1)C(=O)Nc1ccc(Cl)cc1`, the TGI in the test on HCT-116 colon, in the test with NCI-H226 lung, in the test with M14 melanoma, in the test on K-562 leukemia, in the test with COLO 205 colon and in the test on NCI-H460 lung was over 100 µM each time. Moreover, the TGI in the test with SW-620 colon, in the test with OVCAR-3 ovarian and in the test on HCT-15 colon was over 100 µM each time.

`COc1ccc(OCC(=O)O)c2c1CCC(C(C)C)C2=O` (configuration not stated): the TGI with HCT-116 colon, in the test with M14 melanoma, in the test on K-562 leukemia, in the test on COLO 205 colon, with NCI-H460 lung and in the test on SW-620 colon was over 100 µM throughout. For the same compound, in the test on OVCAR-3 ovarian, the TGI is over 100 µM.

For `CCOC(=N)CC(=O)Nc1ccc(Cl)cc1`, the TGI in the test with HCT-116 colon, in the test with NCI-H226 lung, with M14 melanoma, in the test on K-562 leukemia, in the test on COLO 205 colon and in the test on NCI-H460 lung was over 100 µM in each case. Moreover, the TGI with SW-620 colon, in the test on OVCAR-3 ovarian and with HCT-15 colon was over 100 µM each time.

Regarding `O=C(CCN1CCN(c2cccc(Cl)c2)CC1)N1CCc2c([nH]c3ccccc23)C1c1cccnc1` (configuration not stated), the GI50 in the test with HCT-116 colon was 6.36 µM; in the test on M14 melanoma, 6.06 µM; in the test with K-562 leukemia it was 3.99 µM; in the test with COLO 205 colon it was 4.83 µM; in the test on OVCAR-3 ovarian, 7.67 µM; with HCT-15 colon it was 5.18 µM. The TGI in the test with HCT-116 colon was 18.3 µM; in the test on NCI-H226 lung, 49.9 µM; in the test on M14 melanoma, 9.22 µM and 19 µM; in the test with K-562 leukemia it was 18.6 µM; with COLO 205 colon, 15.6 µM; in the test on NCI-H460 lung, 16.9 µM. In addition, the TGI in the test with SW-620 colon was 23.8 µM; with OVCAR-3 ovarian, 8.77 µM and 20.1 µM; with HCT-15 colon, 18 µM.

Turning to `O=C(O)c1ccc(S(=O)(=O)c2ccccc2)c([N+](=O)[O-])c1`, the TGI with HCT-116 colon, with NCI-H226 lung, in the test with M14 melanoma, with K-562 leukemia, in the test with COLO 205 colon and in the test with NCI-H460 lung was over 100 µM each time. Moreover, the TGI in the test on SW-620 colon, in the test with OVCAR-3 ovarian and with HCT-15 colon was over 100 µM in each case.

In the case of `COC(=O)C1(C)C=C(Nc2ccccc2)C(=O)N1c1ccccc1` (configuration not stated), the TGI with HCT-116 colon, with NCI-H226 lung, in the test with M14 melanoma, in the test with K-562 leukemia, with NCI-H460 lung and with SW-620 colon was over 100 µM throughout. Further, the TGI in the test with OVCAR-3 ovarian is over 100 µM.

For the compound `COc1ccc2[nH]cc(CCNC(C)=O)c2c1`, the TGI was over 100 µM in the test with HCT-116 colon; over 100 µM in the test on M14 melanoma; over 100 µM with K-562 leukemia; 85.5 µM in the test with COLO 205 colon; over 100 µM in the test on NCI-H460 lung; 24.1 µM with SW-620 colon. For the same compound, the TGI with OVCAR-3 ovarian and with HCT-15 colon was over 100 µM each time.

For the origin of these results see PubChem BioAssay (NCI).
